Series [1] can be described thus: Lipophilicity, log D of compound. Particulars: octanol/water. The format is physicochemical.
A short description of series [2]: Efflux ratio in human Caco2 cells. The format is ADME, cell-based. Particulars: Caco-2. For orientation: Passage across Caco-2 layers is used to estimate intestinal permeability.

For two compounds, logD and efflux ratio results are on record in ChEMBL document CHEMBL4732037, “Drugging the undruggable: a computational chemist''s view of KRASG12C” (RSC Med Chem, 2021).

Broadly, the logD is lipophilicity at a set pH, counting ionised and neutral species. High values mean a more lipophilic compound, low ones a more hydrophilic compound. A word on the efflux ratio: it is the permeability from basolateral to apical divided by that in the opposite direction, in the common usage.

The compound `C=CC(=O)N1CCN2c3c(cnc4cc(-c5c(O)cccc5F)c(Cl)cc34)NC(=O)[C@H]2C1` showed a logD in series [1] of 3.

`C=CC(=O)N1CCN2c3c(cnc4cc(-c5c(O)cccc5F)c(Cl)cc34)N(C)C(=O)[C@H]2C1` displayed a logD in series [1] of 3. Further, the efflux ratio in series [2] is 0.9.
